Values of other authors as cited in US9851354B2, “Methods of treating fragile X syndrome and related disorders” (Alcobra Ltd., priority 2013, dated 2017).

Settings: cited from earlier work
[1] = randomized placebo-controlled trial in autistic children (McCracken 2002)

Cc1nc2n(c(=O)c1CCN1CCC(c3noc4cc(F)ccc34)CC1)CCCC2 [risperidone]
social isolation and communication (autistic children): not improved | adverse events [1]: weight gain, increased appetite, fatigue, drowsiness, dizziness, and drooling | irritability subscale of the Aberrant Behavior Checklist and Clinical Global Impressions-Improvement [1]: significant improvement | adverse side effects associated with use (use in autistic children): extrapyramidal symptoms and dyskinesias
